Experimental data published in US20220324796A1, “ANTIBIOTIC COMPOUNDS” (The General Hospital Corporation, priority 2019, published 2022).
≈ marks a conversion by molar mass, not a printed value.

Key:
[1] = tested on: MRSA strain MW2 persisters; test: Deep-seated mouse thigh infection model, bacterial load; type: in vivo; conditions: 30 mg/kg each agent, every 12 h for 3 days from 24 h post-infection
Procedure: Deep-seated mouse thigh infection model. […] Mice were euthanized at 96 h post-infection. […] Thighs were homogenized in PBS, serially diluted with PBS, and spot-plated on TSA plates.

[2] = tested on: MRSA BF4; test: MIC assay (micro-dilution); type: cell-based, S. aureus; conditions: Staphylococcus aureus; daptomycin-intermediate resistant MRSA strain BF4
Procedure: Minimal inhibitory concentration (MIC) assay. The MICs of antibiotics were determined by the standard micro-dilution method recommended by the Clinical and Laboratory Standards Institute. MIC assays were conducted in biological triplicate.

[3] = tested on: HKC-8 human renal proximal cells; test: Mammalian membrane permeability assay (SYTOX Green); type: cell-based; conditions: up to 64 μg/mL
Procedure: Mammalian membrane permeability assay. Human renal proximal tubular epithelial cells (HKC-8) were grown in Dulbecco' s modified Eagle F-12 media mixed 1:1 with Ham's F-12 (DMEM/F-12, Life Technologies, Carlsbad, Calif., USA) supplemented with 10% FBS and 4 mM L-glutamine at 37° C. in 5% CO2. For membrane permeability assays, HKC-8 was cultured in black, clear-bottom, 96-well plates (Corning no. 3904) in 100 μl/well of the growth media to reach ˜70% confluence. After washing the cells twice with PBS, 50 μl of 0.25 μM SYTOX Green was added to each well. After incubating the cells at 37° C. in 5% CO2 for 15 min, the cells were treated with a range of concentrations of bithionol or the cholesterol binding detergent saponin (positive control). Fluorescence was measured at room temperature using a spectrophotometer (SpectraMax M2, Molecular Devices) with excitation and emission wavelengths of 485 nm and 525 nm, respectively. The assay was carried out in biological duplicate.
To visualize HKC-8 cells with compromised membranes, HKC-8 was cultured in 24-well plates (Corning no. 3527) until —70% confluence. After washing the cells twice with PBS, 500 μl of 1 μM SYTOX Green was added to each well. The cells were incubated at 37° C. in 5% CO2 for 15 min and then treated with 32 μg/mL (final concentration) bithionol or saponin for 1 h. […]

[4] = tested on: Gram-negative bacteria including Escherichia coli and Shigella dysenteriae; conditions: previously described; cited from earlier work
[5] = tested on: exponential phase MRSA MW2 cells; test: Cell lysis by optical density; type: cell-based, S. aureus; conditions: 10 μg/mL, 4 h
[6] = tested on: exponential-phase S. aureus MW2; test: Killing kinetics assay; type: cell-based
Procedure: Killing kinetics assay. An overnight culture of S. aureus MW2 ^−was diluted in 25 mL TSB to a concentration of ˜10^5 CFU/mL. The diluted culture was grown to exponential-phase (˜2×10^7 CFU/mL) at 37° C. with shaking at 200 rpm. 1 mL of the exponential-phase culture was added to each well of a 96-well assay block (Corning Costar 3960) containing 1 mL of 2× of the desired concentrations of antibiotics dissolved in pre-warmed TSB at 37° C. The assay block was then incubated at 37° C. with shaking at 200 rpm. At every hour, 400 μl cultures were removed, washed once with PBS, serially diluted and spot-plated onto tryptic soy agar (TSA, BD) plates. The plates were incubated at 37° C. overnight, and colonies were counted to determine the titer of the cultures. These experiments were conducted in biological triplicate.

[7] = Giant unilamellar vesicles (GUVs) assay, bacterial mimetic
Procedure: Giant unilamellar vesicles (GUVs) assay. GUVs were prepared by slightly modifying the electroformation method described previously. 1,2-dioleoyl-sn-glycero-3-phosphocholine (DOPC), 1,2-dioleoyl-sn-glycero-3-phospho-(1′-rac-glycerol) (DOPG), 1-palmitoyl-2-oleoyl-glycero-3-phosphocholine (POPC), cholesterol (ovine wool) and 1,2-dioleoyl-sn-glycero-3-phosphoethanolamine-N-(lissamine rhodamine B sulfonyl) (18:1 Liss Rhod PE) were purchased from Avanti Polar Lipids (Alabaster, Ala., USA). 4 mM lipid mixtures consisting of DOPC/DOPG/18:1 Liss Rhod PE (7:3:0.005) and POPC/cholesterol/18:1 Liss Rhod PE (7:3:0.005) were dissolved in chloroform respectively. Same procedure was used to prepare both kinds of GUVs. Indium tin oxide (ITO)-coated slides (50×75×1.1 mm, Delta Technologies, Loveland, Colo., USA) were coated with […] of the lipid mixture and dried in a vacuum chamber for 2 h to remove chloroform. An electroformation chamber was made by placing a 2 mm thick Teflon spacer between the two lipid-coated ITO slides. […] After adding 1 μl of compound solution to a well (final compound concentration: 1× MIC), the GUVs were observed and imaged with an optical microscope equipped with fluorescence contrast and a digital camera (63x objectives, Axio Observer. A1 & AxioCam MRm, Zeiss, Germany). […]

[8] = tested on: Gram-positive bacteria including S. aureus, Bacilius subtilis, and Enterococcus faecium; conditions: previously described; cited from earlier work

SMILES: Oc1c(Cl)cc(Cl)cc1Sc1cc(Cl)cc(Cl)c1O [bithionol, 6,6′-thio-bis-(2,4-dichlorophenol)]
- effect on MRSA CFUs in the mouse thigh [1]: no effect
- MIC [2]: 0.5 µg/mL (≈ 1.4 µM)
- SYTOX Green membrane permeabilization of HKC-8 cells [3]: did not induce SYTOX Green membrane permeabilization
- MIC [4]: > 100 µg/mL
- optical density of S. aureus cells (bacteriolytic activity) [5]: time-dependent decrease in optical density
- time to eradicate ~10^7 CFU/mL exponential-phase S. aureus MW2 ([6]; 10 μg/mL (10× MIC)): ≤ 3 h
- rate of killing ([6]; 10× MIC, compared with daptomycin and vancomycin): comparable to daptomycin (at 10× MIC) but significantly faster than the killing kinetics of vancomycin
- effect on DOPC/DOPG GUVs ([7]; 1 μg/mL): Lipid aggregates formed on the surfaces of the GUVs
- effect on DOPC/DOPG GUVs ([7]; 10 μg/mL): the GUVs burst
- minimal inhibitory concentration (MIC) [8]: 8 to 15 µg/mL
